In patent US20250346943A1, “DEGRADER COMPOUNDS OF QSOX1 mRNA” (UNIVERSITY OF FLORIDA RESEARCH FOUNDATION, INCORPORATED, priority 2022, published 2025):

Assays:
[1] = system: WT model of the QSOX1-a hairpin structure; experiment: Optical melting, WT model RNA; format: binding, human
Experimental: (§1) Optical Melting Experiments. The thermal stability of WT and mutant model RNAs in the presence and absence of F1-Amide was measured by optical melting. The RNA ([…]) was prepared in 1× Melting Buffer (8 mM Na2HPO4, pH 7, 10 mM NaCl, and 1 mM EDTA) and heated to 95° C. followed by cooling on ice. F1-Amide was added to the final concentration of 2 mM; an equal volume of DMSO was added to the vehicle sample. The absorbance of the solution at 260 nm was measured by a Beckman Coulter DU800 spectrophotometer as a function of temperature, from 12° C. to 85° C. at a rate of 1° C./min. The background absorbance of buffer with DMSO or compound was subtracted before fitting the curve with MeltWin (v3.5)^7 to determine the melting temperature (Tm) and the Gibbs free energy (ΔG37° C.).

MDA-MB-231 cells [2] = experiment: Invasion assay; format: cell-based, human; settings: 48 h
Experimental: Invasion Assay. MDA-MB-231 cells were seeded in […] and treated with compound or transfected by ASO for 48 h as described in Cell Culture. After treatment for 48 h, the medium was replaced with fresh medium that contains same concentration of compound but lacking FBS for 8 h (serum starvation). ThinCert (GBO) 24-well inserts with 8 μm pores were coated with 100 μL of 0.5 mg/mL Matrigel (Fisher Scientific: CB40234) per well, and then cells were added into the insert (50,000 cells per well). Fresh growth medium with FBS was added to a 24-well plate (600 μL each well), and the inserts containing cells were placed on the top, allowing medium to cover the bottom of the insert. After 16 h, all medium was removed, and cells were washed by 1×DPBS twice. Cells were then fixed with 3% (w/v) paraformaldehyde (PFA) in 1×DPBS at room temperature for 30 min, followed by staining with Crystal Violet (10 mg/mL; 4:1H2O:MeOH) at room temperature for 20 min. A cotton swab was used to gently remove non-invasive cells on sitting on top of the Matrigel. The inserts were then imaged under a regular optical microscope (3 views per well), and the number of invasive cells were counted manually.

MDA-MB-231 cells [3] = experiment: Proliferation assay; format: cell-based, human; settings: 48 h treatment
Experimental: Proliferation Assay. MDA-MB-231 cells were seeded in 96-well plates (Corning) at ˜40% confluency and treated with compound or transfected with ASO as described in Cell Culture. Compound was replenished every 16 h by replacing all the growth medium with freshly prepared medium containing same concentration of compounds. After 48 h total treatment period, proliferation was measured by using CellTiter 96 AQueous One Solution Cell Proliferation Assay (Cat #G3582, Promega) per manufacturer's protocol.

QSOX1-a protein = QSOX1-a protein abundance by Western blotting in MDA-MB-231 cells; format: cell-based, human; settings: 20 μM
Experimental: (§2) Measuring Protein Abundance by Western Blotting. MDA-MB-231 cells were seeded in 6-well plates at ˜50% confluency and treated with vehicle (DMSO) or compound as described above but without EU treatment. After 16 h, the compound-containing growth medium was removed and replaced with fresh medium containing compound (re-dosing). After an additional 32 h incubation, total protein was harvested (48 h total treatment time). The cells were then washed twice with cold 1×DPBS, and total protein was harvested by using Mammalian Protein Extraction Reagent (M-PER, Thermo Scientific) per the manufacturer's protocol. Protein concentration was quantified by using BCA Protein Assay Kit (Pierce), and the proteins were separated by using 10% SDS-polyacrylamide gel (20 μg protein per lane). After gel electrophoresis in 1× Running Buffer (50 mM MOPS, 50 mM Tris-base, pH 7.5, 1 mM EDTA, and 0.1% (w/v) SDS) at 120 V for 1 h, the proteins were transferred to a PVDF membrane (0.45 μm, Cytiva) at 300 mA for 1 h in 1× Transfer Buffer (25 mM Bicine, 25 mM Tris-base, pH 7.5, 1:4 MeOH:H2O). The membrane was blocked with 5% (w/v) non-fat dry milk in TBST (1×TBS containing 0.1% (v/v) Tween-20) for 1 h at room temperature. The primary antibody for QSOX1 protein (Cat #10092-932, Proteintech) or SQSTM1 protein (Cat #ab 109012, Abcam) was incubated with 1:1000 dilutions at 4° C. for 16 h. The membrane was then washed by TBST four times (5 min each) and then incubated with the secondary antibody (Cat #7074S, Cell Signaling) with 1:5000 dilution at room temperature for 2 h. The membrane was washed with TBST four times (5 min each) and imaged by using a SuperSignal West Pico Chemiluminescent Substrate (Pierce) per manufacturer's protocol. The blot was stripped by washing the membrane in 1× Stripping Buffer (200 mM glycine, pH 2.2, 4 mM SDS, 1% (v/v) Tween 20) at room temperature for 30 min, followed by blocking again as described above. […] Expression levels of proteins were quantified based on band intensity by using ImageJ. […]

[4] = biological target: QSOX1 5′UTR hairpin (model of the QSOX1-a binding site); experiment: In vitro binding by fluorescence polarization, Cy5-labeled WT RNA; design: species or system human
Experimental: In Vitro Binding by Measuring Changes in Fluorescence Polarization. Cy5-labeled RNA was folded by heating at 95° C. for 2 min in 1× Folding Buffer and cooled on ice. Serial dilutions of F1 (200 to 0.4 μM, 1:1 dilutions) were prepared in 1× Folding Buffer with 4% (w/v) bovine serum albumin (BSA) with constant DMSO concentration (2% v/v). The compound solutions (10 μL) were added to a well of non-binding 384-well plate (Corning). An equal volume of folded RNA was adding to each well with a final concentration of 50 nM. The samples were incubated at room temperature for 30 min, and then fluorescence polarization was measured with a Molecular Devices SpectraMax M5 plate reader with an excitation wavelength of 640 nm and an emission wavelength of 680 nm.

[5] = system: wild type (WT) QSOX1 5′ UTR RNA hairpin; experiment: In vitro Chem-CLIP and competitive Chem-CLIP with Cy5-labeled WT RNA; format: binding, human; settings: constant concentration of F1, increasing competitor
Experimental: In Vitro Chemical-Crosslinking and Isolation by Pull-down (Chem-CLIP) with Fluorescently Labeled RNA. Cy5-labeled RNA (100 μL, 2 μM) was folded by heating at 95° C. for 2 min in 1× Folding Buffer and cooled on ice. The RNA was then mixed with F1 at the indicated concentrations. The sample was irradiated with UV light (365 nm) for 15 min and then added to 100 μL of azide-disulfide agarose beads (Click Chemistry Tools, 1238-2) pre-washed with 200 μL of 25 mM HEPES, pH 7.0. A click reaction solution was prepared by mixing 30 μL of 250 mM sodium ascorbate, 30 μL of 10 mM CuSO4, and 30 μL of 50 mM THPTA, which was added to the sample. The sample was incubated while rotating at 37° C. for 2 h, briefly centrifuged, and then the supernatant was decanted. The beads were washed six times with 1× Washing Buffer (10 mM Tris-HCl, pH 7, 4 M NaCl, 1 mM EDTA, and 0.05% (v/v) Tween-20) following by incubation with 1× Releasing Buffer (50 mM TCEP and 100 mM K2CO3) at 37° C. for 30 min. An equivalent of iodoacetamide (200 mM) was added to the sample, which was incubated at 37° C. for an additional 30 min. The sample was briefly centrifuged and supernatant containing RNA was carefully transferred to a clean tube. Cy-5 fluorescence in the supernatant was measured with a Molecular Devices SpectraMax M5 plate reader with an excitation wavelength of 640 nm and an emission wavelength of 680 nm. For competitive Chem-CLIP, F1-RIBOTAC was added to the folded the RNA and incubated at room temperature for 15 min prior to the addition of F1. Pull-down was then completed as described above.

[6] = system: mutant RNA (U-bulge mutated to U/A base pair); experiment: Optical melting, mutant model RNA; format: binding
Experimental: as §1

SQSTM1 protein = SQSTM1 protein abundance by Western blotting in MDA-MB-231 cells; format: cell-based, human; settings: F1-Amide 20 μM, F1-RIBOTAC 10 μM, 48 h
Experimental: as §2, with “temperature.” for “temperature. The primary antibody for QSOX1 protein (Cat #10092-932, Proteintech) or SQSTM1 protein (Cat #ab 109012, Abcam) was incubated with 1:1000 dilutions at 4° C. for 16 h. The membrane was then washed by TBST four times (5 min each) and then incubated with the secondary antibody (Cat #7074S, Cell Signaling) with 1:5000 dilution at room temperature for 2 h. The membrane was washed with TBST four times (5 min each) and imaged by using a SuperSignal West Pico Chemiluminescent Substrate (Pierce) per manufacturer's protocol. The blot was stripped by washing the membrane in 1× Stripping Buffer (200 mM glycine, pH 2.2, 4 mM SDS, 1% (v/v) Tween 20) at room temperature for 30 min, followed by blocking again as described above.”

human transcriptome = experiment: Chem-CLIP-Map-Seq transcriptome-wide target profiling in live MDA-MB-231 cells; format: cell-based; settings: 20 μM, 16 h; for number of transcripts enriched (Chem-CLIP-seq): before excluding control probe overlap
Experimental: Additional studies were performed in live MDA-MB-231 cells to profile the cellular targets as well as the small molecule binding site within them, via Chem-CLIP-Map-Seq,^21 which had not previously been applied transcriptome-wide. After treatment (20 μM; 16 h) and cross-linking, total RNA was harvested and fragmented prior to pull-down (FIG. 2A). Random fragmentation was completed first to: 1) reduce sequence bias in library preparation, 2) reduce background signal in the RNA-seq analysis; and 3) allow for only the regions bound by the small molecules to be pulled down rather than the entire transcript, identifying both the target and the binding site within it. In parallel, a control diazirine probe that lacks an RNA-binding functionality (FIG. 2B) was used to identify targets that non-specifically react with the cross-linking moiety, where cross-linking is not driven by the RNA-binding elements.
Genrich uses a null model with a log-normal distribution to calculate p values by comparing sequencing runs of the same RNA sample before and after pull-down.
Chemical-Cross-linking and Isolation by Pull-down (Chem-CLIP) in Live Cells. MDA-MB-231 cells were seeded in 60 mm dishes and allowed to reach ˜80% confluency. The cells were then treated with 20 μM of compound in growth medium and incubated for 16 h. Cells were washed with 1×DPBS and irradiated with UV light for 10 min. Total RNA was harvested using a Zymo Quick-RNA Miniprep Kit per the manufacturer's protocol with DNase treatment. Total RNA was chemically fragmented by using an NEBNext Magnesium RNA Fragmentation Module (E6150S) per manufacturer's protocol to achieve final lengths between 100-150 nucleotides Pull-down of cross-linked RNAs was performed by adding 10 μg of total RNA to 100 μL of azide-disulfide agarose beads (Click Chemistry Tools, 1238-2) pre-washed with 25 mM HEPES, pH 7.0. The click reaction and pull-down were completed as described in “In Vitro Chemical-Crosslinking and Isolation by Pull-down (Chem-CLIP) with Fluorescently Labeled RNA”. The pulled down RNA was purified by RNA CleanXP beads (Beckman, A66514) per manufacturer's protocol.
RNA-seq Library Preparation and Data Analysis. The quality of the pulled down RNA was analyzed by using an Agilent 2100 Bioanalyzer RNA nanochip as well as to confirm fragment lengths. RNA concentration was quantified by Qubit 2.0 Fluorometer (Invitrogen). The input RNA (200 ng) was depleted of ribosomal RNA with NEBNext rRNA Depletion Module (E6310) according to manufacturer's recommendations. Library preparation was performed with NEBNext Ultra II Directional RNA kit (E7760) per manufacturer's protocols. Briefly, the rRNA-depleted samples were reverse transcribed with random hexamer primers to generate first strand cDNA, followed by second strand synthesis with dUTP instead of dTTP. The cDNA was end repaired and adenylated at their 3′ ends, followed by adaptor ligation. The strand information of the RNA was preserved by using USER enzyme (Uracil-specific excision reagent) to degrade the second strand. The cDNA was then PCR amplified with barcoded Illumina-compatible primers to generate the final libraries. These libraries were loaded into a NextSeq 500 v2.5 flow cell and sequenced with 2×40 bp paired-end chemistry. All fastq files were aligned to the human genome by STAR.^9 The output bam files were processed by Genrich (v0.6.1, available at https://github.com/jsh58/Genrich) for peak calling to identify regions of enrichment (p<0.001 and False Discovery Rate=1%). Fold enrichment was calculated by Deeptool^10 and visualized by IGV browser.^11 A minimum read count of 5 and a minimum fold enrichment of 1.5 were applied filter to filter out low-confidence peaks.

[7] = upon addition of small molecule

| SMILES | number of enriched transcripts also enriched by the control probe (human transcriptome) | share of enriched transcripts also enriched by the control probe (human transcriptome) | unique transcripts identified for the small molecule (human transcriptome) | number of transcripts enriched (Chem-CLIP-seq) (human transcriptome) | also measured |
| --- | --- | --- | --- | --- | --- |
| CCCNC(=O)CCC(=O)N(C)[C@H]1CC[C@@H](c2ccc(Cl)c(Cl)c2)c2ccccc21 [Compound F1-Amide] | – | – | – | – | Tm of WT model RNA upon addition of compound ([1]; RNA alone 51.8): 53.7 °C; ΔG37° C. of WT model RNA upon addition of compound ([1]; RNA alone −2.7): -3.0 kcal/mol; decrease of DG°37 [1, 7]: 0.3 kcal/mol; increase of melting temperature (Tm) [1, 7]: 1.9 °C; effect on invasion (MDA-MB-231 cells [2]): no significant effect; effect on proliferation of MDA-MB-231 cells (MDA-MB-231 cells [3]): dose-dependently reduced proliferation; reduction of QSOX1-a protein (QSOX1-a protein): ~15%; Kd [4]: 26 ± 9 µM; competition of F1 cross-linking to the QSOX1-a target site (competitive Chem-CLIP) [5]: dose-dependently competed off; effect on Tm or ΔG37° C. of mutant RNA [6]: No significant effect; effect on SQSTM1 protein levels (SQSTM1 protein): Neither |
| C#CCCC1(CCC(=O)N2CCN(c3nncc4sccc34)CC2)N=N1 [Compound F2] | 52 transcripts | 31% | 38 | 166 transcripts | – |
| C#CCCC1(CCC(=O)N(CCNC(=O)c2ccc(C)c(F)c2)Cc2ccncc2)N=N1 [Compound F3] | 53 transcripts | 32% | – | 163 transcripts | – |
| C#CCCC1(CCC(=O)Nc2nnc(SCc3ccc(F)c4cccnc34)n2C)N=N1 [Compound F5] | 57 transcripts | 62% | 3 | 92 transcripts | number of transcripts enriched after eliminating transcripts also bound by the control diazirine (human transcriptome): 35 |
| C#CCCC1(CCC(=O)Nc2nc(-c3ccc(-n4cccn4)cc3)cs2)N=N1 [Compound F6] | 55 transcripts | 43% | – | 127 transcripts | – |
